Test results from ChEMBL document CHEMBL4706528, “The design, synthesis and anti-tumor mechanism study of new androgen receptor degrader” (Eur J Med Chem, 2020).

Key:
[1] = system: LNCaP; assay: Antiproliferative activity against androgen-positive human LNCaP cells assessed as cell growth inhibition measured after 72 hrs by SRB assay; assay type: functional, cell-based
[2] = biological target: T1, Androgen receptor (Homo sapiens) (UniProt P10275); assay: Binding affinity to androgen receptor LBD (unknown origin) at 10 uM incubated for 4 hrs under dark by fluorescence polarization based binding assay relative to R1881
T1 sequence (whole entry): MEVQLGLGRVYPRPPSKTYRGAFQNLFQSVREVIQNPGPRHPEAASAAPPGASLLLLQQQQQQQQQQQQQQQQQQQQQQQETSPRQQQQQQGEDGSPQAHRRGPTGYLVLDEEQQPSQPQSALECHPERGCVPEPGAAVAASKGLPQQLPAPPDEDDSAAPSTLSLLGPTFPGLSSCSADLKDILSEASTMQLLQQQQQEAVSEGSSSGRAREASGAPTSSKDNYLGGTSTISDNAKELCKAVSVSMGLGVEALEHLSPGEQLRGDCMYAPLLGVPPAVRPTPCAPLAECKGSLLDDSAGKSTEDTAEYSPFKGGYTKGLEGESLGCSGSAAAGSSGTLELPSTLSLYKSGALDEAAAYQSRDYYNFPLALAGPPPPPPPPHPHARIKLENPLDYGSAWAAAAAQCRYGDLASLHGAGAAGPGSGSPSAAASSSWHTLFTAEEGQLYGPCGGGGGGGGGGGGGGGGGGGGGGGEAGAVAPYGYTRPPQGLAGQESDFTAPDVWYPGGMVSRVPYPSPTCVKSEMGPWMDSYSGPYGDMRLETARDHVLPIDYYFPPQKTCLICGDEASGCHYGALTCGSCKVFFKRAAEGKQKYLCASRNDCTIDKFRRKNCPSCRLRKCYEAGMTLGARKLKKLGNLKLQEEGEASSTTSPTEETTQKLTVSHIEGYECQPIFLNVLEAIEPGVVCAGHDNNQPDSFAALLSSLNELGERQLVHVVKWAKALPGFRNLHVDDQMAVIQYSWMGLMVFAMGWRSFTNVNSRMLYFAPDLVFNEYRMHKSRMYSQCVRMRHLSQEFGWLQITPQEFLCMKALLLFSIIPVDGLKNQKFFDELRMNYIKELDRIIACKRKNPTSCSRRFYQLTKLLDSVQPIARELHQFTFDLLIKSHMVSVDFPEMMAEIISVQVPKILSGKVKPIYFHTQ

[3] = system: LNCaP C4-2B; assay: Antiproliferative activity against androgen-sensitive positive human LNCaP C4-2B cells assessed as cell growth inhibition measured after 72 hrs by SRB assay; assay type: functional, cell-based
[4] = system: PC-3; assay: Antiproliferative activity against androgen-negative human PC-3 cells assessed as cell growth inhibition measured after 72 hrs by SRB assay; assay type: functional, cell-based; conditions: PC-3, 72 h
[5] = Cytotoxicity against androgen-negative human WPMY-1 cells assessed as cell growth inhibition measured after 72 hrs by SRB assay; assay type: cell-based; conditions: WPMY-1, 72 h

Row | IC50 [1] | Activity [2] | IC50 [3] | IC50 [4] | SMILES | IC50 [5]
1 | 4.25 µM | 69.3% | 7.64 µM | > 80 µM | CC1(C)C(=O)N(c2ccc(C#N)c(C(F)(F)F)c2)C(=S)N1CCCn1cc(COCCOCCOCCOCCOC(=O)CC23CC4CC(CC(C4)C2)C3)nn1 | > 80 µM
2 | > 80 µM | 37.9% | > 80 µM | > 80 µM | CC1(C)C(=O)N(c2ccc(C#N)c(C(F)(F)F)c2)C(=S)N1Cc1ccc(OCCCOC(=O)CC23CC4CC(CC(C4)C2)C3)cc1 | > 80 µM
3 | > 80 µM | 32% | 14.6 µM | > 80 µM | CC1(C)C(=O)N(c2ccc(C#N)c(C(F)(F)F)c2)C(=S)N1Cc1ccc(OCCOCCOCCOC(=O)CC23CC4CC(CC(C4)C2)C3)cc1 | > 80 µM
4 | > 80 µM | 43.4% | > 80 µM | > 80 µM | CC1(C)C(=O)N(c2ccc(C#N)c(C(F)(F)F)c2)C(=O)N1Cc1cn(CCCOC(=O)CC23CC4CC(CC(C4)C2)C3)nn1 | > 80 µM
5 | 7.7 µM | 46.7% | 8.34 µM | > 80 µM | CC1(C)C(=O)N(c2ccc(C#N)c(C(F)(F)F)c2)C(=O)N1Cc1cn(CCOCCOCCOC(=O)CC23CC4CC(CC(C4)C2)C3)nn1 | > 80 µM
6 | > 80 µM | 35.8% | > 80 µM | > 80 µM | CC1(C)C(=O)N(c2ccc(C#N)c(C(F)(F)F)c2)C(=S)N1Cc1ccc(OCCOCCOCCOCCOC(=O)CC23CC4CC(CC(C4)C2)C3)cc1 | > 80 µM
7 | 6.87 µM | 29.8% | 7.76 µM | > 80 µM | CC1(C)C(=O)N(c2ccc(C#N)c(C(F)(F)F)c2)C(=O)N1Cc1cn(CCOCCOCCOCCOC(=O)CC23CC4CC(CC(C4)C2)C3)nn1 | > 80 µM
8 | 6.64 µM | 31.6% | 10.6 µM | > 80 µM | CC1(C)C(=O)N(c2ccc(C#N)c(C(F)(F)F)c2)C(=S)N1CCCn1cc(COCCCOC(=O)CC23CC4CC(CC(C4)C2)C3)nn1 | > 80 µM
9 | > 80 µM | 35.8% | > 80 µM | > 80 µM | CC1(C)C(=O)N(c2ccc(C#N)c(C(F)(F)F)c2)C(=S)N1Cc1ccc(-n2cc(COCCOCCOC(=O)CC34CC5CC(CC(C5)C3)C4)nn2)cc1 | > 80 µM
10 | > 80 µM | 26.3% | > 80 µM | > 80 µM | CC1(C)C(=O)N(c2ccc(C#N)c(C(F)(F)F)c2)C(=O)N1Cc1ccc(OCCOCCOC(=O)CC23CC4CC(CC(C4)C2)C3)cc1 | > 80 µM
11 | > 80 µM | 39.1% | 12.2 µM | > 80 µM | CC1(C)C(=O)N(c2ccc(C#N)c(C(F)(F)F)c2)C(=S)N1Cc1ccc(-n2cc(COCCOCCOCCOCCOCCOC(=O)CC34CC5CC(CC(C5)C3)C4)nn2)cc1 | > 80 µM
12 | 6.31 µM | 69.1% | 11.2 µM | > 80 µM | CC1(C)C(=O)N(c2ccc(C#N)c(C(F)(F)F)c2)C(=S)N1Cc1cn(CCOCCOCCOCCOC(=O)CC23CC4CC(CC(C4)C2)C3)nn1 | > 80 µM
13 | > 80 µM | 20.1% | > 80 µM | > 80 µM | CC1(C)C(=O)N(c2ccc(C#N)c(C(F)(F)F)c2)C(=O)N1Cc1ccc(-n2cc(COCCOCCOCCOC(=O)CC34CC5CC(CC(C5)C3)C4)nn2)cc1 | > 80 µM
14 | > 80 µM | 34.2% | > 80 µM | > 80 µM | CC1(C)C(=O)N(c2ccc(C#N)c(C(F)(F)F)c2)C(=S)N1Cc1ccc(OCCOCCOC(=O)CC23CC4CC(CC(C4)C2)C3)cc1 | > 80 µM
15 | > 80 µM | 36.7% | > 80 µM | > 80 µM | CC1(C)C(=O)N(c2ccc(C#N)c(C(F)(F)F)c2)C(=O)N1Cc1ccc(-n2cc(COCCOCCOC(=O)CC34CC5CC(CC(C5)C3)C4)nn2)cc1 | > 80 µM
16 | > 80 µM | 52.8% | 11.9 µM | > 80 µM | CC1(C)C(=O)N(c2ccc(C#N)c(C(F)(F)F)c2)C(=O)N1Cc1cn(CCOCCOC(=O)CC23CC4CC(CC(C4)C2)C3)nn1 | > 80 µM
17 | > 80 µM | 25.3% | > 80 µM | > 80 µM | CC1(C)C(=O)N(c2ccc(C#N)c(C(F)(F)F)c2)C(=S)N1Cc1ccc(-n2cc(COCCOCCOCCOC(=O)CC34CC5CC(CC(C5)C3)C4)nn2)cc1 | > 80 µM
18 | 7.28 µM | 41.9% | 12.3 µM | > 80 µM | CC1(C)C(=O)N(c2ccc(C#N)c(C(F)(F)F)c2)C(=O)N1CCCn1cc(COCCOCCOC(=O)CC23CC4CC(CC(C4)C2)C3)nn1 | > 80 µM
19 | 9.13 µM | 35.1% | > 80 µM | > 80 µM | CC1(C)C(=O)N(c2ccc(C#N)c(C(F)(F)F)c2)C(=S)N1Cc1cn(CCOCCOCCOC(=O)CC23CC4CC(CC(C4)C2)C3)nn1 | > 80 µM
20 | 33.9 µM | 32.3% | > 80 µM | > 80 µM | CC1(C)C(=O)N(c2ccc(C#N)c(C(F)(F)F)c2)C(=S)N1CCCCCCn1cc(COCCOCCOC(=O)CC23CC4CC(CC(C4)C2)C3)nn1 | > 80 µM
21 | > 80 µM | 19.1% | > 80 µM | > 80 µM | CC1(C)C(=O)N(c2ccc(C#N)c(C(F)(F)F)c2)C(=O)N1Cc1ccc(-n2cc(COCCCOC(=O)CC34CC5CC(CC(C5)C3)C4)nn2)cc1 | > 80 µM
22 | > 80 µM | 52.8% | > 80 µM | > 80 µM | CC1(C)C(=O)N(c2ccc(C#N)c(C(F)(F)F)c2)C(=S)N1Cc1cn(CCCOC(=O)CC23CC4CC(CC(C4)C2)C3)nn1 | > 80 µM
23 | 6.66 µM | 33.9% | 9.95 µM | > 80 µM | CC1(C)C(=O)N(c2ccc(C#N)c(C(F)(F)F)c2)C(=O)N1CCCn1cc(COCCOCCOCCOC(=O)CC23CC4CC(CC(C4)C2)C3)nn1 | > 80 µM
24 | > 80 µM | 39.9% | > 80 µM | > 80 µM | CC1(C)C(=O)N(c2ccc(C#N)c(C(F)(F)F)c2)C(=S)N1Cc1ccc(-n2cc(COCCOCCOCCOCCOC(=O)CC34CC5CC(CC(C5)C3)C4)nn2)cc1 | > 80 µM
25 | > 80 µM | 22.2% | 17.4 µM | > 80 µM | CC1(C)C(=O)N(c2ccc(C#N)c(C(F)(F)F)c2)C(=S)N1Cc1cn(CCOCCOC(=O)CC23CC4CC(CC(C4)C2)C3)nn1 | > 80 µM
26 | > 80 µM | 51.8% | > 80 µM | > 80 µM | CC1(C)C(=O)N(c2ccc(C#N)c(C(F)(F)F)c2)C(=O)N1Cc1ccc(-n2cc(COCCOCCOCCOCCOC(=O)CC34CC5CC(CC(C5)C3)C4)nn2)cc1 | > 80 µM
27 | 6.92 µM | 33.7% | 6.61 µM | > 80 µM | CC1(C)C(=O)N(c2ccc(C#N)c(C(F)(F)F)c2)C(=S)N1CCCn1cc(COCCOCCOCCOCCOCCOC(=O)CC23CC4CC(CC(C4)C2)C3)nn1 | > 80 µM
28 | 4.06 µM | 24.3% | 11.2 µM | > 80 µM | CC1(C)C(=O)N(c2ccc(C#N)c(C(F)(F)F)c2)C(=O)N1CCCn1cc(COCCCOC(=O)CC23CC4CC(CC(C4)C2)C3)nn1 | > 80 µM
29 | 9.96 µM | 47% | 11.7 µM | > 80 µM | CC1(C)C(=O)N(c2ccc(C#N)c(C(F)(F)F)c2)C(=O)N1CCCn1cc(COCCOCCOCCOCCOC(=O)CC23CC4CC(CC(C4)C2)C3)nn1 | > 80 µM
30 | > 80 µM | 26% | > 80 µM | > 80 µM | CC1(C)C(=O)N(c2ccc(C#N)c(C(F)(F)F)c2)C(=S)N1Cc1ccc(-n2cc(COCCCOC(=O)CC34CC5CC(CC(C5)C3)C4)nn2)cc1 | > 80 µM
